Data taken from patent US11999794B2, “Human mesothelin chimeric antigen receptors and uses thereof” (Novartis AG, priority 2013, dated 2024).
Read-outs that look alike come from different tables or passages of the source.

Key:
[1] = system: H1N1 A/California/07/2009, H3N2 A/Victoria/210/2009, B/Brisbane/60/2008; test: Serologic response to 2012 seasonal influenza vaccine (HI GMT ratio, primary endpoint); format: in vivo, human; settings: for primary endpoint (≥1.2-fold GMT increase relative to placebo in 2 of 3 strains): ITT population
Description: From December 2011 to April 2012, 218 elderly volunteers were enrolled in a randomized, observer-blind, placebo-controlled trial. The subjects were randomized to treatment arms using a validated automated randomization system with a ratio of RAD001 to placebo of 5:2 in each treatment arm. The treatment arms were: • RAD001 0.5 mg daily or placebo • RAD001 5 mg weekly or placebo • RAD001 20 mg weekly or placebo
The trial was observer-blind because the placebo in the RAD001 0.5 mg daily and 20 mg weekly cohorts differed slightly from the RAD001 tablets in those cohorts. […] The treatment duration for all cohorts was 6 weeks during which time subjects underwent safety evaluations in the clinic every 2 weeks. After subjects had been dosed for 4 weeks, RAD001 steady state levels were measured pre-dose and at one hour post dose. After completing the 6 week course of study drug, subjects were given a 2 week drug free break to reverse any possible RAD001-induced immunosuppression, and then were given a 2012 seasonal influenza vaccination (Agrippal®, Novartis Vaccines and Diagnostics, Siena, Italy) containing the strains H1N1 A/California/07/2009, H3N2 A/Victoria/210/2009, B/Brisbane/60/2008. Four weeks after influenza vaccination, subjects had serum collected for influenza titer measurements. Antibody titers to the 3 influenza vaccine strains as well as to 2 heterologous strains (A/H1N1 strain A/New Jersey/8/76 and A/H3N2 strain A/Victoria/361/11) were measured by standard hemagglutination inhibition assay (Kendal, A P et al. (1982) Concepts and procedures for laboratory-based influenza surveillance. Atlanta: Centers for Disease Control and Prevention B17-B35). Levels of IgG and IgM specific for the A/H1N1/California/07/2009 were measured in serum samples taken before and 4 weeks after influenza vaccination as described previously (Spensieri, F. et al. (2013) Proc. Natl. Acad. Sci. USA 110:14330-14335). Results were expressed as fluorescence intensity.
The primary analysis of geometric mean titer ratios was done using a normal Bayesian regression model with non-informative priors. This model was fitted to each antibody titer on the log scale. The primary outcome in each model was the Day 84 measurement. The Day 63 measurement was included in the outcome vector. The model fitted using SAS 9.2 proc mixed with the prior statement. The covariance structure of the matrix was considered as unstructured (option type=UN). A flat prior was used. For the secondary analysis of seroconversion rates, logistic regression was used.
The ability of RAD001 to improve immune function in elderly volunteers was evaluated by measuring the serologic response to the 2012 seasonal influenza vaccine. […]

[2] = Adverse event and safety assessment of RAD001 in elderly volunteers; format: in vivo, human; settings: for Incidence of treatment-related AE: Blood cholesterol increased / Incidence of treatment-related AE: Conjunctivitis / Incidence of treatment-related AE: Diarrhea / Incidence of treatment-related AE: Dry mouth / Incidence of treatment-related AE: Dyspepsia / Incidence of treatment-related AE: Erythema / Incidence of treatment-related AE: Fatigue / Incidence of treatment-related AE: Headache / Incidence of treatment-related AE: Insomnia / Incidence of treatment-related AE: Limb discomfort / Incidence of treatment-related AE: Low density lipoprotein increased / Incidence of treatment-related AE: Mouth ulceration / Incidence of treatment-related AE: Mucosal inflammation / Incidence of treatment-related AE: Neutropenia / Incidence of treatment-related AE: Oral pain / Incidence of treatment-related AE: Paresthesia oral / Incidence of treatment-related AE: Pruritus / Incidence of treatment-related AE: Stomatitis / Incidence of treatment-related AE: Thrombocytopenia / Incidence of treatment-related AE: Tongue ulceration / Incidence of treatment-related AE: Urinary tract infection / Treatment-related AEs: Patients with AE(s) / Treatment-related AEs: Total AE(s): N = 53
Description: Adverse event assessment and blood collection for hematologic and biochemical safety assessments were performed during study visits. Adverse event information was also collected in diaries that subjects filled out at home during the 6 weeks they were on study drug. Data on all adverse events were collected from the time of informed consent until 30 days after the last study visit. Events were classified by the investigators as mild, moderate or severe.

[3] = Questionnaires on energy and exercise one year after dosing; format: in vivo, human; settings: 0.5 mg daily cohort
[4] = cited from earlier work

CO[C@H]1C[C@@H]2CC[C@@H](C)[C@@](O)(O2)C(=O)C(=O)N2CCCC[C@H]2C(=O)O[C@H]([C@H](C)C[C@@H]2CC[C@@H](OCCO)[C@H](OC)C2)CC(=O)[C@H](C)/C=C(\C)[C@@H](O)[C@@H](OC)C(=O)[C@H](C)C[C@H](C)/C=C/C=C/C=C/1C [RAD001, (1R,9S,12S,15R,16E,18R,19R,21R,23 S,24E,26E,28E,30S,32S,35R)-1,18-dihydroxy-12-{(1R)-2-[(1 S,3R,4R)-4-(2-hydroxyethoxy)-3-methoxycyclohexyl]-1-methylethyl}-19,30-dimethoxy-15,17,21,23,29,35-hexamethyl-11,36-dioxa-4-aza-tricyclo[30.3.1.04,9]hexatriaconta-16,24,26,28-tetraene-2,3,10,14,20-pentaone]
primary endpoint (≥1.2-fold GMT increase relative to placebo in 2 of 3 strains) ([1]; 0.5 mg daily or 5 mg weekly): met the GMT primary endpoint | primary endpoint (≥1.2-fold GMT increase relative to placebo in 2 of 3 strains) ([1]; 20 mg weekly): but not higher dose (20 mg weekly) cohort met the primary endpoint | increase in titers in subjects with low baseline influenza titers (≤1:40) ([1]; compared with the ITT population): greater RAD001-associated increase in titers | RAD001 concentration versus increase in titer ([1]; concentration 1 hour post dose after 4 weeks): inverse exposure/response relationship | Incidence of treatment-related AE: Blood cholesterol increased ([2]; 0.5 mg daily): 2 (3.8%) n (%) | Incidence of treatment-related AE: Conjunctivitis ([2]; 0.5 mg daily): 0 n (%) | Incidence of treatment-related AE: Diarrhea ([2]; 0.5 mg daily): 1 (1.9%) n (%) | Incidence of treatment-related AE: Dry mouth ([2]; 0.5 mg daily): 0 n (%) | Incidence of treatment-related AE: Dyspepsia ([2]; 0.5 mg daily): 0 n (%) | Incidence of treatment-related AE: Erythema ([2]; 0.5 mg daily): 0 n (%) | Incidence of treatment-related AE: Fatigue ([2]; 0.5 mg daily): 0 n (%) | Incidence of treatment-related AE: Headache ([2]; 0.5 mg daily): 0 n (%) | Incidence of treatment-related AE: Insomnia ([2]; 0.5 mg daily): 1 (1.9%) n (%) | Incidence of treatment-related AE: Limb discomfort ([2]; 0.5 mg daily): 0 n (%) | Incidence of treatment-related AE: Low density lipoprotein increased ([2]; 0.5 mg daily): 2 (3.8%) n (%) | Incidence of treatment-related AE: Mouth ulceration ([2]; 0.5 mg daily): 6 (11.3%) n (%) | Incidence of treatment-related AE: Mucosal inflammation ([2]; 0.5 mg daily): 0 n (%) | Incidence of treatment-related AE: Neutropenia ([2]; 0.5 mg daily): 0 n (%) | Incidence of treatment-related AE: Oral pain ([2]; 0.5 mg daily): 0 n (%) | Incidence of treatment-related AE: Paresthesia oral ([2]; 0.5 mg daily): 2 (3.8%) n (%) | Incidence of treatment-related AE: Pruritus ([2]; 0.5 mg daily): 0 n (%) | Incidence of treatment-related AE: Stomatitis ([2]; 0.5 mg daily): 0 n (%) | Incidence of treatment-related AE: Thrombocytopenia ([2]; 0.5 mg daily): 0 n (%) | Incidence of treatment-related AE: Tongue ulceration ([2]; 0.5 mg daily): 3 (5.7%) n (%) | Incidence of treatment-related AE: Urinary tract infection ([2]; 0.5 mg daily): 0 n (%) | Treatment-related AEs: Patients with AE(s) ([2]; 0.5 mg daily): 22 (41.5%) n (%) | Treatment-related AEs: Total AE(s) ([2]; 0.5 mg daily): 35 | Incidence of treatment-related AE: Blood cholesterol increased ([2]; 5 mg weekly): 2 (3.8%) n (%) | Incidence of treatment-related AE: Conjunctivitis ([2]; 5 mg weekly): 2 (3.8%) n (%) | Incidence of treatment-related AE: Diarrhea ([2]; 5 mg weekly): 4 (7.5%) n (%) | Incidence of treatment-related AE: Dry mouth ([2]; 5 mg weekly): 0 n (%) | Incidence of treatment-related AE: Dyspepsia ([2]; 5 mg weekly): 3 (5.7%) n (%) | Incidence of treatment-related AE: Erythema ([2]; 5 mg weekly): 2 (3.8%) n (%) | Incidence of treatment-related AE: Fatigue ([2]; 5 mg weekly): 2 (3.8%) n (%) | Incidence of treatment-related AE: Headache ([2]; 5 mg weekly): 2 (3.8%) n (%) | Incidence of treatment-related AE: Insomnia ([2]; 5 mg weekly): 2 (3.8%) n (%) | Incidence of treatment-related AE: Limb discomfort ([2]; 5 mg weekly): 2 (3.8%) n (%) | Incidence of treatment-related AE: Low density lipoprotein increased ([2]; 5 mg weekly): 1 (1.9%) n (%) | Incidence of treatment-related AE: Mouth ulceration ([2]; 5 mg weekly): 2 (3.8%) n (%) | Incidence of treatment-related AE: Mucosal inflammation ([2]; 5 mg weekly): 0 n (%) | Incidence of treatment-related AE: Neutropenia ([2]; 5 mg weekly): 0 n (%) | Incidence of treatment-related AE: Oral pain ([2]; 5 mg weekly): 2 (3.8%) n (%) | Incidence of treatment-related AE: Paresthesia oral ([2]; 5 mg weekly): 0 n (%) | Incidence of treatment-related AE: Pruritus ([2]; 5 mg weekly): 2 (3.8%) n (%) | Incidence of treatment-related AE: Stomatitis ([2]; 5 mg weekly): 0 n (%) | Incidence of treatment-related AE: Thrombocytopenia ([2]; 5 mg weekly): 0 n (%) | Incidence of treatment-related AE: Tongue ulceration ([2]; 5 mg weekly): 1 (1.9%) n (%) | Incidence of treatment-related AE: Urinary tract infection ([2]; 5 mg weekly): 0 n (%) | Treatment-related AEs: Patients with AE(s) ([2]; 5 mg weekly): 20 (37.7%) n (%) | Treatment-related AEs: Total AE(s) ([2]; 5 mg weekly): 46 | Incidence of treatment-related AE: Blood cholesterol increased ([2]; 20 mg weekly): 2 (3.8%) n (%) | Incidence of treatment-related AE: Conjunctivitis ([2]; 20 mg weekly): 0 n (%) | Incidence of treatment-related AE: Diarrhea ([2]; 20 mg weekly): 1 (1.9%) n (%) | Incidence of treatment-related AE: Dry mouth ([2]; 20 mg weekly): 2 (3.8%) n (%) | Incidence of treatment-related AE: Dyspepsia ([2]; 20 mg weekly): 2 (3.8%) n (%) | Incidence of treatment-related AE: Erythema ([2]; 20 mg weekly): 0 n (%) | Incidence of treatment-related AE: Fatigue ([2]; 20 mg weekly): 4 (7.5%) n (%) | Incidence of treatment-related AE: Headache ([2]; 20 mg weekly): 9 (17.0%) n (%) | Incidence of treatment-related AE: Insomnia ([2]; 20 mg weekly): 1 (1.9%) n (%) | Incidence of treatment-related AE: Limb discomfort ([2]; 20 mg weekly): 0 n (%) | Incidence of treatment-related AE: Low density lipoprotein increased ([2]; 20 mg weekly): 2 (3.8%) n (%) | Incidence of treatment-related AE: Mouth ulceration ([2]; 20 mg weekly): 9 (17.0%) n (%) | Incidence of treatment-related AE: Mucosal inflammation ([2]; 20 mg weekly): 2 (3.8%) n (%) | Incidence of treatment-related AE: Neutropenia ([2]; 20 mg weekly): 3 (5.7%) n (%) | Incidence of treatment-related AE: Oral pain ([2]; 20 mg weekly): 1 (1.9%) n (%) | Incidence of treatment-related AE: Paresthesia oral ([2]; 20 mg weekly): 0 n (%) | Incidence of treatment-related AE: Pruritus ([2]; 20 mg weekly): 1 (1.9%) n (%) | Incidence of treatment-related AE: Stomatitis ([2]; 20 mg weekly): 2 (3.8%) n (%) | Incidence of treatment-related AE: Thrombocytopenia ([2]; 20 mg weekly): 2 (3.8%) n (%) | Incidence of treatment-related AE: Tongue ulceration ([2]; 20 mg weekly): 0 n (%) | Incidence of treatment-related AE: Urinary tract infection ([2]; 20 mg weekly): 2 (3.8%) n (%) | Treatment-related AEs: Patients with AE(s) ([2]; 20 mg weekly): 27 (50.9%) n (%) | Treatment-related AEs: Total AE(s) ([2]; 20 mg weekly): 109 | deaths during the study ([2]; human, in vivo): No deaths | most common related AE ([2]; majority of mild severity): mouth ulcer | severe AEs assessed as related ([2]; mouth ulcers, 20 mg weekly): Only one severe AE | tolerability ([2]; particularly 0.5 mg daily and 5 mg weekly): well tolerated | serious adverse events (SAEs), relation to drug ([2]; three subjects, four SAEs): assessed as unrelated to RAD001 | energy and exercise ability [3]: increased energy and exercise ability as compared to placebo | trough level ([4]; 10 mg daily oncology dosing regimen): approximately 20 ng/ml | trough level ([4]; 0.75-1.5 mg bid transplant dosing regimen): approximately 3 ng/ml
